Assay results: patent US6479435B1, “Diaryl ethers and processes for their preparation and herbicidal and desiccant compositions containing them” (ISK Americas Incorporated, priority 1997, dated 2002)

Experiments:
Type in all cases: in vivo
[1] = tested on: Johnsongrass (Sorghum halepense, SORHA); test: Pre-emerge greenhouse herbicide test, phytotoxicity rating; details: 14 days after application, rating scale 0-100
Source text: (§1) A standard greenhouse herbicide activity screening system was used to evaluate the herbicidal efficacy and crop safety of these test compounds. Six broadleaf weed species including redroot pigweed (Amaranthus retroflexus, AMARE), velvetleaf (Abutilon theophrasti, ABUTH), sicklepod (Cassia obtusifolia, CASOB), ivyleaf morningglory (Ipomoea hederacea, IPOHE), lambsquarters (Chenopodium album, CHEAL) and common ragweed (Ambrosia artemisiifolia L., AMBEL) were used as test species. Four grass weed species including green foxtail (Setaria viridis, SETVI), barnyardgrass (Echinochloa crusgalli, ECHCG), Johnsongrass (Sorghum halepense, SORHA), and large crabgrass (Digitaria sanguinalis, DIGSA) were also used. In addition, three crop species, field corn (Zea mays L., var. Dekalb 535, CORN), soybean (Glycine max L., var. Pella 86, SOY), and upland rice (Oryza sp., var.Tebonnet, RICE) were included.
(§2) All plants were grown in 10 cm square plastic pots which were filled with a sandy loam soil mix. For preemerge tests, seeds were planted one day prior to application of the test compounds. Immediately after application, test units of the pre-emerge applications were watered at the soil surface to incorporate the test materials. Subsequently, these test units were bottom-watered.
(§3) All test compounds were dissolved in acetone and applied to the test units in a volume of 187 l/ha. Test materials were applied at rates ranging from 125 g ai/ha to 1000 g ai/ha using a track sprayer equipped with a TJ8001E even flow flat fan spray nozzle. Plants were arranged on a shelf so that the top of the canopy (post-emerge) or top of the soil surface (pre-emerge) was 40-45 cm below the nozzle. Pressurized air was used to force the test solution through the nozzle as it was mechanically advanced (via electrically driven chain drive) over the top of all test plants/pots. This application simulates a typical commercial field herbicide application.
(§4) At 14 days after application of the test materials, phytotoxicity ratings were recorded. A rating scale of 0-100 was used as previously described in Research Methods in Weed Science, 2nd edition, B. Truelove, Ed., Southern Weed Science Society, Auburn University, Auburn, Ala., 1977. Briefly, “0” corresponds to no damage and “100” corresponds to complete death of all plants in the test unit. This scale was used both to determine efficacy against weed species and damage to crop species. Herbicide activity data for various compounds of this invention, which are shown by compound number in Tables 1-9, are shown in Tables 13 and 14.

[2] = tested on: barnyardgrass (Echinochloa crusgalli, ECHCG); test: as above; details: 14 days after application, rating scale 0-100
Source text: as §1, §2, §3, §4

[3] = tested on: green foxtail (Setaria viridis, SETVI); test: as above; details: 14 days after application, rating scale 0-100
Source text: as §1, §2, §3, §4

[4] = tested on: ivyleaf morningglory (Ipomoea hederacea, IPOHE); test: as above; details: 14 days after application, rating scale 0-100
Source text: as §1, §2, §3, §4

[5] = tested on: lambsquarters (Chenopodium album, CHEAL); test: as above; details: 14 days after application, rating scale 0-100
Source text: as §1, §2, §3, §4

[6] = tested on: large crabgrass (Digitaria sanguinalis, DIGSA); test: as above; details: 14 days after application, rating scale 0-100
Source text: as §1, §2, §3, §4

[7] = tested on: redroot pigweed (Amaranthus retroflexus, AMARE); test: as above; details: 14 days after application, rating scale 0-100
Source text: as §1, §2, §3, §4

[8] = tested on: sicklepod (Cassia obtusifolia, CASOB); test: as above; details: 14 days after application, rating scale 0-100
Source text: as §1, §2, §3, §4

[9] = tested on: velvetleaf (Abutilon theophrasti, ABUTH); test: as above; details: 14 days after application, rating scale 0-100
Source text: as §1, §2, §3, §4

[10] = tested on: field corn (Zea mays L., var. Dekalb 535, CORN); test: Pre-emerge greenhouse test, crop damage rating; details: 14 days after application, rating scale 0-100
Source text: as §1, §2, §3, §4

[11] = tested on: upland rice (Oryza sp., var.Tebonnet, RICE); test: Pre-emerge greenhouse test, crop damage rating; details: 14 days after application, rating scale 0-100
Source text: as §1, §2, §3, §4

[12] = tested on: soybean (Glycine max L., var. Pella 86, SOY); test: Pre-emerge greenhouse test, crop damage rating; design: key to SOY crop damage rating: 0 = no damage, 100 = complete death of all plants; details: 14 days after application, rating scale 0-100
Source text: as §1, §2, §3, §4

[13] = tested on: Johnsongrass (Sorghum halepense, SORHA); test: Post-emerge greenhouse herbicide test, phytotoxicity rating; details: 14 days after application; for phytotoxicity rating SORHA: scale 0-100
Source text: as §1, §3
(§5) In the post-emerge test, a commercial non-ionic surfactant was also included (0.25% v/v) to enhance wetting of the leaf surfaces Qf target plants at rates ranging from 63 g ai/ha to 1000 g ai/ha. For post-emerge tests, seeds were planted 8-21 days prior to the test to allow emergence and good foliage development prior to application of the test substances. At the time of the post-emerge application, plants of all species were usually at the 2-3 leaf stage of development. Post-emerge test units were always bottom-watered.
as §4

[14] = tested on: barnyardgrass (Echinochloa crusgalli, ECHCG); test: as above; details: 14 days after application; for phytotoxicity rating ECHCG: scale 0-100
Source text: as §1, §3, §5, §4

[15] = tested on: green foxtail (Setaria viridis, SETVI); test: as above; details: 14 days after application; for phytotoxicity rating SETVI: scale 0-100
Source text: as §1, §3, §5, §4

[16] = tested on: ivyleaf morningglory (Ipomoea hederacea, IPOHE); test: as above; details: 14 days after application; for phytotoxicity rating IPOHE: scale 0-100
Source text: as §1, §3, §5, §4

[17] = tested on: lambsquarters (Chenopodium album, CHEAL); test: as above; details: 14 days after application; for phytotoxicity rating CHEAL: scale 0-100
Source text: as §1, §3, §5, §4

[18] = tested on: large crabgrass (Digitaria sanguinalis, DIGSA); test: as above; details: 14 days after application; for phytotoxicity rating DIGSA: scale 0-100
Source text: as §1, §3, §5, §4

[19] = tested on: redroot pigweed (Amaranthus retroflexus, AMARE); test: as above; details: 14 days after application; for phytotoxicity rating AMARE: scale 0-100
Source text: as §1, §3, §5, §4

[20] = tested on: sicklepod (Cassia obtusifolia, CASOB); test: as above; details: 14 days after application; for phytotoxicity rating CASOB: scale 0-100
Source text: as §1, §3, §5, §4

[21] = tested on: velvetleaf (Abutilon theophrasti, ABUTH); test: as above; details: 14 days after application; for phytotoxicity rating ABUTH: scale 0-100
Source text: as §1, §3, §5, §4

[22] = tested on: field corn (Zea mays L., var. Dekalb 535, CORN); test: Post-emerge greenhouse test, crop damage rating; details: 14 days after application; for crop damage rating CORN: scale 0-100
Source text: as §1, §3, §5, §4

[23] = tested on: upland rice (Oryza sp., var.Tebonnet, RICE); test: Post-emerge greenhouse test, crop damage rating; details: 14 days after application; for crop damage rating RICE: scale 0-100
Source text: as §1, §3, §5, §4

[24] = tested on: soybean (Glycine max L., var. Pella 86, SOY); test: Post-emerge greenhouse test, crop damage rating; design: key to crop damage rating SOY: 0-100 scale: 0 = no damage, 100 = complete death of all plants; details: 14 days after application; for crop damage rating SOY: scale 0-100
Source text: as §1, §3, §5, §4

Nn1c(C(F)(F)F)cc(=O)n(-c2cc(Oc3cccc(C(F)(F)F)c3)c(Cl)cc2F)c1=O [Compound 9-25, 1-Amino-3-[4-chloro-2-fluoro-5-(3-trifluoromethylphenoxy)phenyl]-6-trifluoro-methyl-1,2,3,4-tetrahydropyrimidine-2,4-dione]
SORHA phytotoxicity rating ([1]; Rate 125 g al/ha): 80 | SORHA phytotoxicity rating ([1]; Rate 500 g al/ha): 100 | ECHCG phytotoxicity rating ([2]; Rate 125 g al/ha): 70 | ECHCG phytotoxicity rating ([2]; Rate 500 g al/ha): 95 | SETVI phytotoxicity rating ([3]; Rate 125 g al/ha): 100 | SETVI phytotoxicity rating ([3]; Rate 500 g al/ha): 100 | IPOHE phytotoxicity rating ([4]; Rate 125 g al/ha): 70 | IPOHE phytotoxicity rating ([4]; Rate 500 g al/ha): 90 | CHEAL phytotoxicity rating ([5]; Rate 125 g al/ha): 100 | CHEAL phytotoxicity rating ([5]; Rate 500 g al/ha): 100 | DIGSA phytotoxicity rating ([6]; Rate 125 g al/ha): 80 | DIGSA phytotoxicity rating ([6]; Rate 500 g al/ha): 100 | AMARE phytotoxicity rating ([7]; Rate 125 g al/ha): 100 | AMARE phytotoxicity rating ([7]; Rate 500 g al/ha): 100 | CASOB phytotoxicity rating ([8]; Rate 125 g al/ha): 30 | CASOB phytotoxicity rating ([8]; Rate 500 g al/ha): 80 | ABUTH phytotoxicity rating ([9]; Rate 125 g al/ha): 100 | ABUTH phytotoxicity rating ([9]; Rate 500 g al/ha): 100 | CORN crop damage rating ([10]; Rate 125 g al/ha): 20 | CORN crop damage rating ([10]; Rate 500 g al/ha): 40 | RICE crop damage rating ([11]; Rate 125 g al/ha): 40 | RICE crop damage rating ([11]; Rate 500 g al/ha): 90 | SOY crop damage rating ([12]; Rate 125 g al/ha): 50 | SOY crop damage rating ([12]; Rate 500 g al/ha): 80 | phytotoxicity rating SORHA ([13]; rate 63 g ai/ha): 10 | phytotoxicity rating SORHA ([13]; rate 500 g ai/ha): 70 | phytotoxicity rating ECHCG ([14]; rate 63 g ai/ha): 10 | phytotoxicity rating ECHCG ([14]; rate 500 g ai/ha): 0 | phytotoxicity rating SETVI ([15]; rate 63 g ai/ha): 30 | phytotoxicity rating SETVI ([15]; rate 500 g ai/ha): 80 | phytotoxicity rating IPOHE ([16]; rate 63 g ai/ha): 100 | phytotoxicity rating IPOHE ([16]; rate 500 g ai/ha): 100 | phytotoxicity rating CHEAL ([17]; rate 63 g ai/ha): 100 | phytotoxicity rating CHEAL ([17]; rate 500 g ai/ha): 100 | phytotoxicity rating DIGSA ([18]; rate 63 g ai/ha): 0 | phytotoxicity rating DIGSA ([18]; rate 500 g ai/ha): 60 | phytotoxicity rating AMARE ([19]; rate 63 g ai/ha): 100 | phytotoxicity rating AMARE ([19]; rate 500 g ai/ha): 100 | phytotoxicity rating CASOB ([20]; rate 63 g ai/ha): 50 | phytotoxicity rating CASOB ([20]; rate 500 g ai/ha): 100 | phytotoxicity rating ABUTH ([21]; rate 63 g ai/ha): 95 | phytotoxicity rating ABUTH ([21]; rate 500 g ai/ha): 100 | crop damage rating CORN ([22]; rate 63 g ai/ha): 15 | crop damage rating CORN ([22]; rate 500 g ai/ha): 35 | crop damage rating RICE ([23]; rate 63 g ai/ha): 5 | crop damage rating RICE ([23]; rate 500 g ai/ha): 35 | crop damage rating SOY ([24]; rate 63 g ai/ha): 60 | crop damage rating SOY ([24]; rate 500 g ai/ha): 80

CCN1CC(=O)N(c2cc(Oc3ncccc3C(F)(F)F)c(Cl)cc2F)C1=O [Compound 8-1, 3-[4-chloro-2-fluoro-5-(trifluoromethyl-2-pyridyloxy)phenyl]-1-ethylimidazolidine-2,4-dione]
phytotoxicity rating SORHA ([1]; 500 g ai/ha): 60 | phytotoxicity rating ECHCG ([2]; 500 g ai/ha): 40 | phytotoxicity rating SETVI ([3]; 500 g ai/ha): 85 | phytotoxicity rating IPOHE ([4]; 500 g ai/ha): 30 | phytotoxicity rating CHEAL ([5]; 500 g ai/ha): 100 | phytotoxicity rating DIGSA ([6]; 500 g ai/ha): 100 | phytotoxicity rating AMARE ([7]; 500 g ai/ha): 100 | phytotoxicity rating CASOB ([8]; 500 g ai/ha): 70 | phytotoxicity rating ABUTH ([9]; 500 g ai/ha): 95 | crop damage rating CORN ([10]; 500 g ai/ha): 0 | crop damage rating RICE ([11]; 500 g ai/ha): 30 | crop damage rating SOY ([12]; 500 g ai/ha): 0 | SORHA phytotoxicity rating (0-100) ([13]; 500 g al/ha): 0 | ECHCG phytotoxicity rating (0-100) ([14]; 500 g al/ha): 0 | SETVI phytotoxicity rating (0-100) ([15]; 500 g al/ha): 10 | IPOHE phytotoxicity rating (0-100) ([16]; 500 g al/ha): 70 | CHEAL phytotoxicity rating (0-100) ([17]; 500 g al/ha): 85 | DIGSA phytotoxicity rating (0-100) ([18]; 500 g al/ha): 0 | AMARE phytotoxicity rating (0-100) ([19]; 500 g al/ha): 40 | CASOB phytotoxicity rating (0-100) ([20]; 500 g al/ha): 30 | ABUTH phytotoxicity rating (0-100) ([21]; 500 g al/ha): 90 | CORN crop damage rating (0-100) ([22]; 500 g al/ha): 0 | RICE crop damage rating (0-100) ([23]; 500 g al/ha): 0 | SOY crop damage rating (0-100) ([24]; 500 g al/ha): 50
